We go through two compounds from patent US20230338342A1, “METHODS OF TREATING RIBONUCLEOTIDE REDUCTASE-RELATED DISEASES WITH A RIBONUCLEOTIDE REDUCTASE INHIBITOR” (Taiho Pharmaceutical Co., Ltd., priority 2020, published 2023).

Data set [1] can be described thus: Body weight change as index of toxicity in MV-4-11 tumor-bearing mice. Conditions: up to Day 15. The format is in vivo, male nude mice. As to the method:
(§1) Anti-tumor Effect and body weight change in Various Dosing Regimens Human acute myelocytic leukemia (AML) cell line MV-4-11 cells (American Type Culture Collection CRL-9591™) were implanted in the right thorax of male nude mice (CLEA Japan, Inc.). After implantation of the tumor, the major axis (mm) and minor axis (mm) of the tumor were measured, and tumor volume (TV) was calculated for each mouse. Then, the mice were assigned to the following groups, Control group (○), Continuous Dosing Group (●: 100 mg/kg/day; ◊: 150 mg/kg/day) and 1-week ON+1-week OFF Dosing Group (▲: 200 mg/kg/day; ◆: 300 mg/kg/day), so that the average TV of each group was equivalent. The day in which the grouping (n=5) was conducted was taken as Day 0.
5-chloro-2-(N-((1S,2R)-2-(6-fluoro-2,3-dimetylphenyl)-1-(5-oxo-4,5-dihydro-1,3,4-o xadiazol-2-yl)propyl)sulfamoyl)benzamide (Compound A) was suspended in 5 mg/mL hypromellose solution to provide appropriate test samples for 100 mg/kg, 150 mg/kg, 200 mg/kg, and 300 mg/kg dosing regimen. Animals of the Control group were not treated. […]
On the other hand, the body weight (BW) was measured on Days 4, 8, 11 and 15, and the average body weight change (BW change, %) relative to the body weight on Day 0 was calculated by the following formula, as an index of toxicity during the dosing period: BW change (%) = [(BW on Day n) - (BW on Day 0)] / (BW on Day 0) x 100.

The test system of the next data set is 22 cell lines. Briefly: Cell proliferation assay (CellTiter-Glo) and correlation with SLFN11 mRNA expression. The format is cell-based. Conditions: 10 micro mol/L, 3 days of exposure, Pearson's correlation. From the text:
The HEL, NUGC-3, and RPMI8226 cell lines were obtained from the Japanese Collection of Research Bioresources. The 786-O, CFPAC-1, DU145, HCC1599, HCC1806, HCC38, HCT116, HL-60, K-562, MSTO-211H, MV-4-11, NCI-H460, NCI-H2170, and THP-1 cell lines were obtained from the ATCC. The A2780 and COLO 792 cell lines were obtained from the European Collection of Authenticated Cell Cultures. The A549, A673, and MCF-7 cell lines were obtained from DS Pharma Biomedical Co., Ltd.
Cell proliferation assay was performed as reported previously (Hasako, S., et al. Mol Cancer Ther 17, 1648-1658 (2018)). Briefly, cells were plated and incubated for 1 day, followed by 3 days of exposure to the compound. After exposure to Compound A, viable cells were detected by using the CellTiter-Glo luminescent cell viability assay (Promega). The experiment was performed in triplicates.
Correlation analysis of SLFN11 expression and Compound A cytotoxicity was performed using Pearson’s correlation coefficient (P < 0.05) in JMP 13 software. The gene expression data of cell lines were available online CCLE (http://www.broadinstitute.org/ccle/home). Compound A cytotoxicity data from 22 cell lines in Table 5 were used for correlation analysis (data for correlation was not shown).
For orientation: ATP-based viability assays read luminescence as a measure of living cells.

The subject of data set [2] is Human acute myelocytic leukemia (AML) cell line MV-4-11 cells. In words: Anti-tumor effect in MV-4-11 xenograft under various dosing regimens. The format is in vivo, male nude mice. Conditions: for effect of reducing tumor volume (relative tumor volume, RTV): Day 15, vs Control Group. As to the method:
as §1
5-chloro-2-(N-((1S,2R)-2-(6-fluoro-2,3-dimetylphenyl)-1-(5-oxo-4,5-dihydro-1,3,4-o xadiazol-2-yl)propyl)sulfamoyl)benzamide (Compound A) was suspended in 5 mg/mL hypromellose solution to provide appropriate test samples for 100 mg/kg, 150 mg/kg, 200 mg/kg, and 300 mg/kg dosing regimen. Animals of the Control group were not treated.
To mice in the Continuous Dosing Group, 100 mg/kg/day or 150 mg/kg/day of Compound A was orally administered once daily from Day 1 to Day 14. The total dosage for mice in the Continuous Dosing Group administered 100 mg/kg/day (Group C-1) is 1400 mg/kg, and the total dosage for mice in the Continuous Dosing Group administered 150 mg/kg/day (Group C-2) is 2100 mg/kg.
To mice in the 1-week ON+1-week OFF Dosing Group, 200 mg/kg/day or 300 mg/ kg/day of Compound A was orally administered once daily from Day 1 to Day 7, and not administered from Day 8 to Day 14, which corresponds to a resting period of 7 days (1 week) for recovery. The total dosage for mice in the 1-week ON+1-week OFF Dosing Group administered 200 mg/kg/day (Group I-1) is 1400 mg/kg, and the total dosage for mice in the 1-week ON+1-week OFF Dosing Group administered 300 mg/ kg/day (Group I-2) are 2100 mg/kg.
On Days 4, 8, 11 and 15, using the following formula: TV (mm^3) = (major axis x minor axis^2) / 2, relative tumor volume (RTV) was calculated as an index of anti-tumor effect during the dosing period for each group (FIG. 1).

In data set [3] the test system is A673 cells. In words: Cell proliferation assay in A673 cells treated with siRNA against SLFN11. Conditions: siSLFN11-1 and siSLFN11-2 vs siControl, 72 h treatment. The format is cell-based. As to the method:
(§2) A673 cells were transfected with 1 nM siRNAs for 24 h using Lipofectamine® RNAiMAX Reagent (Thermo Fisher Scientific Inc.) and then re-seeded onto a 96-well plate for cell proliferation assay and caspase induction assay and onto dishes for immunoblotting analysis. siRNAs were obtained from Thermo Fisher Scientific Inc. as follows: Silencer® Select Negative Control #1 siRNA (#4390843 used as siControl), SLFN11 Silencer® Select Pre-designed siRNA (#s40703 used as siSLFN11-1, and #s40704 as siSLFN11-2).
Cell proliferation assay was performed as reported previously (Hasako, et al., ibid.). Briefly, cells treated with siRNAs for 24 h were plated onto 96 well plate and incubated for 24 h, followed by 3 days of exposure to the compound. After compound exposure, viable cells were detected by using the CellTiter-Glo luminescent cell viability assay (Promega).

The subject of data set [4] is A673 cells. In words: Caspase induction analysis (Caspase-Glo 3/7) in A673 cells treated with siRNA against SLFN11. The format is cell-based. Conditions: A673 cells transfected with siRNA against SLFN11, 24 h treatment. The procedure:
as §2
Caspase induction analysis was performed as reported previously (Hasako., et al., ibid). Briefly, the cells with siRNAs for 24 h were seeded onto 96 well plate, incubated for24 h, and then treated with Compound A for 24 h. Caspase induction was detected by using the Caspase-Glo 3/7 assay (Promega). Relative caspase-3/7 activation was calculated by applying the correction with respect to cell number. The experiment was performed in triplicates.

A further data set deals with T1, RNR (Homo sapiens, UniProt P23921+P31350).
T1 sequence (P23921 1-792): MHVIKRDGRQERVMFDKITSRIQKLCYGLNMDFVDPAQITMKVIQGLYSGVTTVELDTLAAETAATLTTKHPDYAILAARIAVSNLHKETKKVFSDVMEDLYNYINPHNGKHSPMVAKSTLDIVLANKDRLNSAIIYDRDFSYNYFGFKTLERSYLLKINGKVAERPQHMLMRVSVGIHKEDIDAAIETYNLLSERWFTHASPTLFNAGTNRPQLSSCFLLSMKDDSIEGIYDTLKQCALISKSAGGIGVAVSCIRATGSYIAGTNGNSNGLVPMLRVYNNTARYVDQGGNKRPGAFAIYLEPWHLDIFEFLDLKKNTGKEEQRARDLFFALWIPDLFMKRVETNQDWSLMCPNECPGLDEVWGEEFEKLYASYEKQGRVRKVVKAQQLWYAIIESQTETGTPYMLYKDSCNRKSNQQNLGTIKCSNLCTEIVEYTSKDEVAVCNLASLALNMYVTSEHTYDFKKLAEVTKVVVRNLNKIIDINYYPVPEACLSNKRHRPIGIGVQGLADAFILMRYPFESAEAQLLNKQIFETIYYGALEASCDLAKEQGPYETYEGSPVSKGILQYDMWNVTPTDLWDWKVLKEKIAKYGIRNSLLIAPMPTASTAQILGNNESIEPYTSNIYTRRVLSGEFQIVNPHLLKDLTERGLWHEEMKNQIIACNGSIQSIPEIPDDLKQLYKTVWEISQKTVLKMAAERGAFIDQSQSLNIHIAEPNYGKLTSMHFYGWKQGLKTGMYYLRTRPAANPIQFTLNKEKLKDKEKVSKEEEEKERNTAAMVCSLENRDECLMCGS
T1 sequence (P31350 1-389): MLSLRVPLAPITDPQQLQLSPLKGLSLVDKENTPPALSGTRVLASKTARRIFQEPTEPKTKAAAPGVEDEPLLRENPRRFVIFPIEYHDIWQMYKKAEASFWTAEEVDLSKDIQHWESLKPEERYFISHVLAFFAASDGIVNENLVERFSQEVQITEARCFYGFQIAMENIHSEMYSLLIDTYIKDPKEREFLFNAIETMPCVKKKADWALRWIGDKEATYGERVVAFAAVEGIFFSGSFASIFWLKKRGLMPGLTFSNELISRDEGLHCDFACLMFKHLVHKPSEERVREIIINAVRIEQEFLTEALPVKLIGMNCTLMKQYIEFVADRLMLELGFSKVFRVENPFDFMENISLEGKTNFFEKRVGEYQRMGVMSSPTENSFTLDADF
The note with it: background art; cited from earlier work.

`Cc1ccc(F)c([C@@H](C)[C@H](NS(=O)(=O)c2ccc(Cl)cc2C(N)=O)c2n[nH]c(=O)o2)c1C` [Compound A, 5-chloro-2-(N-((1S,2R)-2-(6-fluoro-2,3-dimetylphenyl)-1-(5-oxo-4,5-dihydro-1,3,4-oxadiazol-2-yl)propyl)sulfamoyl)benzamide]: the “body weight change (BW change)” value in data set [1] (1-week ON+1-week OFF Dosing Group (Groups I-1 and I-2), 200 or 300 mg/kg/day orally Day 1 to Day 7) is “shows drastic recovery in body weight”; in data set [1] (Continuous Dosing Group (Groups C-1 and C-2), 100 or 150 mg/kg/day orally Day 1 to Day 14), “does not show satisfactorily recovery in terms of body weight loss”. Also, in the data set on 22 cell lines, the “correlation between SLFN11 mRNA expression and relative cell growth (%)” value is on record as “a significant correlation”. The “effect of reducing tumor volume (relative tumor volume, RTV)” value in data set [2] (1-week ON+1-week OFF Dosing Group, 200 or 300 mg/kg/day orally once daily Day 1 to Day 7, rest Day 8 to Day 14) is “shows the effect of reducing tumor volume compared with Control Group”; in data set [2] (Continuous Dosing Group, 100 or 150 mg/kg/day orally once daily Day 1 to Day 14), “shows the effect of reducing tumor volume compared with Control Group”. For the same compound, the “effect of reducing tumor volume, Group I-1 compared with Group C-1” value in data set [2] (total dosage 1400 mg/kg, I-1 200 mg/kg/day 1-week ON+1-week OFF vs C-1 100 mg/kg/day continuous) is reported as “tends to be higher than Group C-1, though the difference is not statistically significant”. Further, in data set [2] (total dosage 2100 mg/kg, I-2 300 mg/kg/day 1-week ON+1-week OFF vs C-2 150 mg/kg/day continuous), the “effect of reducing tumor volume, Group I-2 compared with Group C-2” value is “seems to be similar”. For the same compound, the “cytotoxic effect (cell growth) after SLFN11 knockdown” value in the data set with A673 cells [3] was “SLFN11 knockdown significantly suppressed the cytotoxic effect”. Further, in the data set with A673 cells [4], the “caspase-3/7 activation after SLFN11 knockdown” value is “suppression of Compound A-induced caspase-3/7 activation”. Also, at RNR, the RNR inhibitory activity result is “potent”.
On to `NC(=O)NO` [HU, hydroxyurea, reference compound], for which the RNR inhibitory activity result on RNR is listed as “weak”.
